US6858638B2, “Substituted indazoles, compositions containing them, method of production and use” (Aventis Pharma S.A., priority 2002, dated 2005)

Tests used:
Format in all cases: biochemical
human FAK = target: T1, human FAK (Homo sapiens, UniProt Q05397); experiment: FAK autophosphorylation inhibition, time resolved fluorescence (HTRF) assay; conditions: 10 μM (values without asterisk); for inhibition at 10 µM: read-out: FAK % inhib at 10 μM
T1 construct: The complete cDNA of human FAK; made in house; host or cells: baculovirus expression system (vector pFastBac HTc)
In short: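 His-tagged full-length human FAK from baculovirus (6.6 µg/ml) self-phosphorylates with 15 µM ATP in HEPES pH 7.2, MgCl2, vanadate, 1 h at 37 °C. HTRF detection (Eu-anti-phosphotyrosine / XL665-anti-His), 665/620 nm ratio; % inhibition vs untreated control, duplicate mean.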

[1] = target: T2, human IGF1R cytoplasmic domain (Homo sapiens, UniProt P08069); experiment: IGF1R autophosphorylation inhibition, time resolved fluorescence (HTRF) assay; conditions: 10 μM; for inhibition at 10 µM: read-out: IGF1R % inhib at 10 μM
T2 construct: The human IGF1R cytoplasmic domain was cloned; made in house; host or cells: SF21 insect cells (baculovirus)
In short: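 GST-tagged human IGF1R cytoplasmic domain from SF21 cells incubated with compound in 50 mM Hepes pH 7.5, 5 mM MnCl2, 50 mM NaCl, […] ATP. Autophosphorylation detected by HTRF (Eu-K anti-phosphotyrosine, XL665 anti-GST) after EDTA/KF stop; percentage inhibition versus no-compound control.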

Aurora2 kinase = target: T3, Aurora2 kinase (Homo sapiens, UniProt O14965); experiment: Aurora2 kinase radioactivity scintillation assay using nickel chelate (NuMA substrate); conditions: 10 μM; for inhibition at 10 µM: read-out: Aurora2 % inhib at 10 μM
T3 construct: A complete recombinant Aurora2 enzyme; His tag (N); made in house; host or cells: E. coli
T3 sequence (O14965 1-403): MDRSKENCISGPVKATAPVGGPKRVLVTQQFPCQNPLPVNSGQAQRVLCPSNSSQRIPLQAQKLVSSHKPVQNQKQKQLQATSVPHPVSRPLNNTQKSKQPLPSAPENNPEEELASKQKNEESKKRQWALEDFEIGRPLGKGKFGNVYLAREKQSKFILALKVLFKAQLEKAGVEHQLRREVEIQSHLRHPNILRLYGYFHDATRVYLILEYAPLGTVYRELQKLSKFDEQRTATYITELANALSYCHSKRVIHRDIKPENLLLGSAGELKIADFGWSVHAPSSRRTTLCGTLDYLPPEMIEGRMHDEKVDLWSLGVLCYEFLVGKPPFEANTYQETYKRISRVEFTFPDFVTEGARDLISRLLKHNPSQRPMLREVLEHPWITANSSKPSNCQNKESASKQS
In short: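 His-tagged full-length Aurora2 (0.02 μM, E. coli) phosphorylating His-tagged NuMA C-terminal fragment (0.5 μM) with 1 μM ATP plus [33P]-ATP, 30 min at 37 °C, pH 7.5 Tris buffer with MgCl2. Nickel-chelate scintillation read; percent inhibition versus no-compound control.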

human KDR enzyme = target: T4, human KDR enzyme (Homo sapiens, UniProt P35968); experiment: KDR substrate (PLCγ) phosphorylation, scintillation assay; conditions: 10 μM; for inhibition at 10 µM: read-out: KDR % inhib at 10 μM
T4 construct: The cytoplasmic domain of the human KDR enzyme; GST; made in house; host or cells: SF21 insect cells (baculovirus)
In short: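 GST-fused human KDR cytoplasmic domain from SF21 cells (about 60% pure, 100 ng) phosphorylated 2 μg of GST-PLCγ SH2-SH3 fragment. The trigger solution held γ33P-ATP with 2 μM cold ATP, in MOPS buffer pH 7.2 with Mg2+, Mn2+, vanadate and NaF. Reactions ran 1 h at 37 °C, were stopped with EDTA and counted by scintillation; results are % inhibition versus the no-compound control.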

T1 sequence (Q05397 whole entry): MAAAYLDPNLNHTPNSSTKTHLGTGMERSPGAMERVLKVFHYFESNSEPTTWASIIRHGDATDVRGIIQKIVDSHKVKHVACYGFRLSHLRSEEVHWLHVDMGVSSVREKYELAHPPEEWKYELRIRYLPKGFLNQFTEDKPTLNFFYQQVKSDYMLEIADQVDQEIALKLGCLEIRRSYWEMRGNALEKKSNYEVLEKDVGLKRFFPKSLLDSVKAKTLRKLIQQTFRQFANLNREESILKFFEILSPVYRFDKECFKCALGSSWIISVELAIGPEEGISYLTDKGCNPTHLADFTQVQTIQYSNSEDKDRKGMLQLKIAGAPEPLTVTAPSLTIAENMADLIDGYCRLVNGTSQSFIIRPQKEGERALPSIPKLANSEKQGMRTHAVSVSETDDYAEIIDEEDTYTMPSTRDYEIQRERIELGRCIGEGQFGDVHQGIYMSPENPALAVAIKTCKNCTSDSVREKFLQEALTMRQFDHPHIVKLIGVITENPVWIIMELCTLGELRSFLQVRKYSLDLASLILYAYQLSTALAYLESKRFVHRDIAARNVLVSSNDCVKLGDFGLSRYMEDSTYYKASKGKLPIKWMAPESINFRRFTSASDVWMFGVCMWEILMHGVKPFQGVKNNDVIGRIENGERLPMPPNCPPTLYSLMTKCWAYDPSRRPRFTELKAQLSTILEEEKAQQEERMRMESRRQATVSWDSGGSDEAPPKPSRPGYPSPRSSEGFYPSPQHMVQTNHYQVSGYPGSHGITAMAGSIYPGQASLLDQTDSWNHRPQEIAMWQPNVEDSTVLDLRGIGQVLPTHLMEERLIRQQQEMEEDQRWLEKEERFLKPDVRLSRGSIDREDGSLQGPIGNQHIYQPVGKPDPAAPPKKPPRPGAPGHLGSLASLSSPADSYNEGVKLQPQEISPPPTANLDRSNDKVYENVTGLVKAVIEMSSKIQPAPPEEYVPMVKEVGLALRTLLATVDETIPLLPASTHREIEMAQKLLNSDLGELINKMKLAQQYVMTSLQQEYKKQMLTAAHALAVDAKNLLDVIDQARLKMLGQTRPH
T2 sequence (P08069 960-1367 limits assumed): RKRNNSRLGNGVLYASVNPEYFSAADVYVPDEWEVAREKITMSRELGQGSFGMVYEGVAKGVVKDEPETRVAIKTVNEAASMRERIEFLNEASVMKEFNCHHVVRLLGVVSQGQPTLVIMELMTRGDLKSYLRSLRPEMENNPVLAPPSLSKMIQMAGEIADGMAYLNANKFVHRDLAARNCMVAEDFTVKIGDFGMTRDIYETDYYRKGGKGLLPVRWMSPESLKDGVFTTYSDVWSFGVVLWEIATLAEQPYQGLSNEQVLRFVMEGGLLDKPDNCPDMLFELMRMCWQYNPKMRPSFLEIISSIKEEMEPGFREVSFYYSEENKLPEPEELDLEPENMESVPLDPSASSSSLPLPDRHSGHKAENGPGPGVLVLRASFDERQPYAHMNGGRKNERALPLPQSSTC
T4 sequence (P35968 786-1356 limits assumed): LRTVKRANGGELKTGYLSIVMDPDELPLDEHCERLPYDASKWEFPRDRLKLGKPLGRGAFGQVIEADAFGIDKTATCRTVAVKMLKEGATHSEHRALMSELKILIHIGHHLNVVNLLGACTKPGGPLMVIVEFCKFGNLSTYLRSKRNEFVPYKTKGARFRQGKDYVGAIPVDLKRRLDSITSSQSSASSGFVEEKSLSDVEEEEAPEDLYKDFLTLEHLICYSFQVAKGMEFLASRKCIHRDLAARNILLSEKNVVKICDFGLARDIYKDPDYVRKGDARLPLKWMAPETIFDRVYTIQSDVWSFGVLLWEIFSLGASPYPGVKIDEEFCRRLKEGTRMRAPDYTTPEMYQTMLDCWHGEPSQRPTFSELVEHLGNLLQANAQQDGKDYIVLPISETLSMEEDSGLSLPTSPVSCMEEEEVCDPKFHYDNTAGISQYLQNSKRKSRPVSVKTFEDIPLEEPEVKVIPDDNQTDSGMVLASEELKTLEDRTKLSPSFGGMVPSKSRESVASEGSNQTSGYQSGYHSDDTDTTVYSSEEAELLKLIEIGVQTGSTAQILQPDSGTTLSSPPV

| SMILES | inhibition at 10 µM (human FAK) [%] | inhibition at 10 µM [1] [%] | inhibition at 10 µM (Aurora2 kinase) [%] | inhibition at 10 µM (human KDR enzyme) [%] | FAK % inhib at 10 μM (human FAK) [%] | IGF1R % inhib at 10 μM [1] [%] | Aurora2 % inhib at 10 μM (Aurora2 kinase) [%] | KDR % inhib at 10 μM (human KDR enzyme) [%] |
| --- | --- | --- | --- | --- | --- | --- | --- | --- |
| CS(=O)(=O)c1ccccc1S(=O)(=O)Nc1ccc2[nH]nc(-c3cc4ccccc4o3)c2c1 [Example 180, N-(3-Benzofuran-2-yl-1H-indazol-5-yl)-2-methanesulfonyl-benzenesulfonamide] | 95 | 93 | 99 | 29 |  |  |  |  |
| O=S(=O)(Nc1ccc2[nH]nc(-c3ccccc3)c2c1)c1ccccc1OC(F)(F)F [Example 142, N-(3-Phenyl-1H-indazol-5-yl)-2-trifluoromethoxy-benzenesulfonamide] | 40 | 74 | 100 | 85 |  |  |  |  |
| O=S(=O)(Nc1ccc2[nH]nc(-c3ccccc3)c2c1)c1ccc2ccccc2c1 [Example 108, N-(3-Phenyl-1H-indazol-5-yl)-naphthalene-2-sulfonamide] | 8 | 78 | 44 | 72 |  |  |  |  |
| COc1ccc(-c2n[nH]c3ccc(NS(=O)(=O)c4ccccc4S(C)(=O)=O)cc23)c(OC)c1 [Example 199, 2-Methanesulfonyl-N-[3-(2,4-dimethoxyphenyl)-1H-indazol-5-yl]benzenesulfonamide] | 87 | 27 | 87 | 45 |  |  |  |  |
| CS(=O)(=O)c1ccccc1S(=O)(=O)Nc1ccc2[nH]nc(-c3cc4cccnc4[nH]3)c2c1 [Example 57, 2-Methylsulfonyl-N-[3-(1H-pyrrolo[2,3-b]pyridin-2-yl)-1H-indazol-5-yl]benzenesulfonamide] | 48 | 0 | 53 | 22 |  |  |  |  |
| CC(=O)Nc1n[nH]c2ccc(NS(=O)(=O)c3ccccc3S(C)(=O)=O)cc12 [Example 43, N-[5-(2-Methylsulfonylbenzenesulfonylamino)-1H-indazol-3-yl)-acetamide] | 83 | 96 | 85 | 25 |  |  |  |  |
| CS(=O)(=O)c1ccccc1S(=O)(=O)Nc1ccc2[nH]nc(-c3cc(Cl)cc(Cl)c3)c2c1 [Example 168, N-[3-(3,5-Dichlorophenyl)-1H-indazol-5-yl]-2-methanesulfonyl-benzenesulfonamide] | 95 | 50 | 87 | 49 |  |  |  |  |
| CS(=O)(=O)c1ccccc1S(=O)(=O)Nc1ccc2[nH]nc(-c3cccc(OC(F)(F)F)c3)c2c1 [Example 219, N-[3-(3-Trifluoromethoxy-phenyl)-1H-indazol-5-yl]-2-methanesulfonyl-benzenesulfonamide] | 87 | 60 | 86 | 31 |  |  |  |  |
| O=S(=O)(Nc1ccc2[nH]nc(-c3ccccc3)c2c1)c1cccc2nonc12 [Example 149, N-(3-Phenyl-1H-indazol-5-yl)-benzo[1,2,5]oxadiazole-4-sulfonamide] | 78 | 67 | 100 | 57 |  |  |  |  |
| O=S(=O)(Nc1ccc2[nH]nc(-c3cc4ccccc4[nH]3)c2c1)c1ccccc1 [Example 82, N-[3-(1H-Indol-2-yl)-1H-indazol-5-yl]benzenesulfonamide] | 93 | 100 | 100 | 100 |  |  |  |  |
| CS(=O)(=O)c1ccccc1S(=O)(=O)Nc1ccc2[nH]nc(NC(=O)c3ccccc3)c2c1 [Example 45, N-[5-(2-Methylsulfonylbenzenesulfonylamino)-1H-indazol-3-yl]benzamide] | 100 | 95 | 95 | 55 |  |  |  |  |
| CS(=O)(=O)c1ccccc1S(=O)(=O)Nc1ccc2[nH]nc(-c3cc(Cl)ccc3Cl)c2c1 [Example 225, N-[3-(2,5-Dichlorophenyl)-1H-indazol-5-yl]-2-methanesulfonyl-benzenesulfonamide] | 51 | 27 | 49 | 12 |  |  |  |  |
| CS(=O)(=O)c1ccccc1S(=O)(=O)Nc1ccc2[nH]nc(-c3ccc(OCc4ccccc4)c(F)c3)c2c1 [Example 194, N-[3-(4-Benzyloxy-3-fluoro-phenyl)-1H-indazol-5-yl]-2-methanesulfonyl-benzenesulfonamide] | 44 | 41 | 58 | 39 |  |  |  |  |
| COc1ccc2[nH]c(-c3n[nH]c4ccc(NS(=O)(=O)c5ccccc5S(C)(=O)=O)cc34)cc2c1 [Example 58, 2-Methylsulfonyl-N-[3-(5-methoxy-1H-indol-2-yl)-1H-indazol-5-yl]benzenesulfonamide] | 97 | 100 | 100 | 97 |  |  |  |  |
| CN(C)c1cccc2c(S(=O)(=O)Nc3cccc(-c4n[nH]c5ccc(NS(=O)(=O)c6ccccc6S(C)(=O)=O)cc45)c3)cccc12 [Example 166, N-{3-[5-(2-Methanesulfonyl-benzenesulfonylamino)-1H-indazol-3-yl]phenyl}-5-dimethylaminonaphthalene-1-sulfonamide] | 53 | 20 | 61 | 33 |  |  |  |  |

Now from value to compound:

| inhibition at 10 µM (human FAK) [%] | inhibition at 10 µM [1] [%] | inhibition at 10 µM (Aurora2 kinase) [%] | inhibition at 10 µM (human KDR enzyme) [%] | FAK % inhib at 10 μM (human FAK) [%] | IGF1R % inhib at 10 μM [1] [%] | Aurora2 % inhib at 10 μM (Aurora2 kinase) [%] | KDR % inhib at 10 μM (human KDR enzyme) [%] | SMILES |
| --- | --- | --- | --- | --- | --- | --- | --- | --- |
| 80 | 77 | 89 | 68 |  |  |  |  | CCSc1ccc(-c2n[nH]c3ccc(NS(=O)(=O)c4ccccc4S(C)(=O)=O)cc23)cc1 [Example 213, N-[3-(4-Ethylsulfanylphenyl)-1H-indazol-5-yl]-2-methanesulfonyl-benzenesulfonamide] |
| 46 | 52 | 67 | 49 |  |  |  |  | CS(=O)(=O)c1ccccc1S(=O)(=O)Nc1ccc2[nH]nc(-c3ccccc3Cl)c2c1 [Example 187, N-[3-(2-Chlorophenyl)-1H-indazol-5-yl]-2-methanesulfonyl-benzenesulfonamide] |
| 91 | 70 | 92 | 71 |  |  |  |  | Cc1ccc(-c2n[nH]c3ccc(NS(=O)(=O)c4ccccc4S(C)(=O)=O)cc23)cc1F [Example 224, N-[3-(3-Fluoro-4-methyl-phenyl)-1H-indazol-5-yl]-2-methanesulfonyl-benzenesulfonamide] |
| 98 | 61 | 99 | 73 |  |  |  |  | CS(=O)(=O)c1ccccc1S(=O)(=O)Nc1ccc2[nH]nc(-c3ccc(C(=O)O)cc3)c2c1 [Example 69, 4-[5-(2-Methylsulfonylbenzenesulfonamino)-1H-indazol-3-yl]benzoic acid] |
| 90 | 72 | 89 | 47 |  |  |  |  | CS(=O)(=O)c1ccccc1S(=O)(=O)Nc1ccc2[nH]nc(-c3ccc(F)c(F)c3)c2c1 [Example 192, N-[3-(3,4-Difluorophenyl)-1H-indazol-5-yl]-2-methanesulfonyl-benzenesulfonamide] |
|  |  |  |  | 97 | 94 | 94 | 80 | CS(=O)(=O)c1ccccc1S(=O)(=O)Nc1ccc2[nH]nc(-c3ccc(O)cc3)c2c1 [Example 35, N-[3-(4-Hydroxyphenyl)-1H-indazol-5-yl]-2-methylsulfonylbenzenesulfonamide] |
| 85 | 73 | 97 | 75 |  |  |  |  | CS(=O)(=O)c1ccccc1S(=O)(=O)Nc1ccc2[nH]nc(-c3ccc4[nH]ccc4c3)c2c1 [Example 104, N-[3-(1H-indol-5-yl)-1H-indazol-5-yl]-2-methylsulfonylbenzenesulfonamide] |
